# Test results from patent US11617748B2, “Meclozine derivatives and diclazuril derivatives for use in the prevention and/or the treatment of disorders associated to the inflammation induced by P. acnes” (priority 2016, dated 2023).
# Legend:
# Format in all cases: cell-based, human
# ICAM-1 = assay: Western blot of ICAM-1 expression in P. acnes-stimulated HaCaT cells; conditions: 25 μM, 24 h pre-treatment
# Protocol: (§1) Western Blot analysis. Whole cell protein extracts (25 μg) were separated by electrophoresis (LDS-PAGE) under denaturing conditions with NuPAGE Novex 4-12% Bis-Tris gel (1 mm, 12 wells, Invitrogen, UK) and proteins were transferred onto nitrocellulose membranes and saturated in 20 ml of saturation buffer consisting of TBS 1× (Tris Buffered Saline) containing 200 mM Tris, 1.4 M NaCl (pH 7.6), 5% no fat milk, 0.1% Tween 20 for 1 h. […] After washing to remove unbound antibodies, bound primary antibodies were detected by incubation for 1 h using secondary antibody against rabbit- and mouse IgG (Santa Cruz Biotechnology, SC-2357, 1:5000 and SC-2005, 1:5000, respectively). Unbound material was removed by washing and peroxidase activity was detected in a chemiluminescence assay (WesternBright ECL, Advansta, Menlo Park, USA). […]
# ERK = assay: Western blot of p-ERK/ERK in P. acnes-stimulated HaCaT cells; conditions: 24 h pre-treatment; for phosphorylation of ERKs induced by P. acnes: 10 μM; for phosphorylation of ERK induced by P. acnes: 25 μM
# Protocol: (§2) Western Blot analysis. Whole cell protein extracts (25 μg) were separated by electrophoresis (LDS-PAGE) under denaturing conditions with NuPAGE Novex 4-12% Bis-Tris gel (1 mm, 12 wells, Invitrogen, UK) and proteins were transferred onto nitrocellulose membranes and saturated in 20 ml of saturation buffer consisting of TBS 1× (Tris Buffered Saline) containing 200 mM Tris, 1.4 M NaCl (pH 7.6), 5% no fat milk, 0.1% Tween 20 for 1 h. After washing three times for 15 min with 15 ml of TBS/T buffer [1×TBS, 0.1% Tween-20], membranes were incubated overnight with gentle mixing at 4° C. with 10 ml of rabbit polyclonal primary antibodies against human ICAM-1 (SC-7891, 1:500), PPARα (SC-398394, 1:250), PPARβ (SC-74517, 1:200), PPARγ (SC-7196, 1:500), IκB (SC-371, 1:500), p-IκB (SC-7977, 1:500), Cox-2 (SC-7951, 1:250), p-mTOR (CS, Ref 2974, 1:1000), mTOR (CS, Ref 2972, 1:1000), p-p38 (SC-17852, 1:500), p38 (SC-535, 1:250), ERK (SC-94, 1:500), JNK (SC-571, 1:500), and mouse monoclonal primary antibodies against human p-PI3 kinase (CS, Ref 4228, 1:250), PI3 kinase (CS, Ref 4257, 1:250), p-Akt1/2/3 (SC-81433, 1:500), p-ERK (SC-7383, 1:500), p-JNK (SC-6254, 1:500), -actin used to control loading, (SC-47778, 1:1000) diluted in TBS/T supplemented with 5% BSA (antibodies were purchased from Santa Cruz Biotechnology, Inc., Santa Cruz, Calif., USA abbreviated SC; and from Cell Signaling Technology, Inc. Leiden, The Netherlands abbreviated CS above). After washing to remove unbound antibodies, bound primary antibodies were detected by incubation for 1 h using secondary antibody against rabbit- and mouse IgG (Santa Cruz Biotechnology, SC-2357, 1:5000 and SC-2005, 1:5000, respectively). Unbound material was removed by washing and peroxidase activity was detected in a chemiluminescence assay (WesternBright ECL, Advansta, Menlo Park, USA).
# The molecular basis for the inhibition of IL-8 production by diclazuril and meclozine has been investigated, in particular it has been evaluated if they interfered with signaling pathways known to be activated when keratinocytes are stimulated with P. acnes. It has first been confirmed the activation of IL-8 production when cells were stimulated by P. acnes while pre-treatment with both, diclazuril and meclozine, inhibit such production (FIG. 4A).
# We also shown that the activation of HaCaT keratinocytes by P. acnes led to the activation of p-ERK, p-p38, p-JNK, p-PKC, p-Akt, p-mTOR (FIG. 15, panel P. acnes alone) and p-PI3K (FIG. 16, panel P. acnes alone).
# hBD-2 production = hBD-2 production by M5-stimulated NHDK, in vitro psoriasis-like model (ELISA); conditions: NHDK + M5, 48 h
# Protocol: Cell culture, pretreatment and stimulation.
# ELISA. Human IL-1β, IL-8, hBD-2 and TNF-α protein concentration were measured in the supernatants of stimulated cells using various ELISA Sets (all from Ready-Set-Go from eBioscience, except hBD-2 measurements: Human DEFB4A/BD-2 ELISA Kit from LSBio) according to the manufacturer's instructions. We used serial dilutions of recombinant human IL-1β, IL-8, hBD-2 and TNF-α for standard curve. The optical density was determined at 450 nm at a wavelength correction of 540 nm.
# IκB = assay: Western blot of IκB / p-IκB in P. acnes-stimulated HaCaT cells; conditions: 24 h pre-treatment; for degradation of p-IκB: 25 μM, P. acnes 30 min-24 h
# Protocol: as §2
# The molecular basis for the inhibition of IL-8 production by diclazuril and meclozine has been investigated, in particular it has been evaluated if they interfered with signaling pathways known to be activated when keratinocytes are stimulated with P. acnes. […]
# PKC = assay: Western blot of p-PKC/PKC in P. acnes-stimulated HaCaT cells; conditions: 25 μM, 24 h pre-treatment
# Protocol: as §1
# Akt = assay: Western blot of p-Akt/Akt in P. acnes-stimulated HaCaT cells; conditions: 25 μM, 24 h pre-treatment
# Protocol: as §1
smiles,measurement,setting,value
"Cc1cccc(CN2CCN(C(c3ccccc3)c3ccc(Cl)cc3)CC2)c1 (stereo not drawn) [meclozine, Meclozine]",P. acnes-induced ICAM-1 expression,ICAM-1,decreased its expression
same,phosphorylation of ERKs induced by P. acnes,ERK,prevented the phosphorylation of ERKs
same,phosphorylation of ERK induced by P. acnes,ERK,prevented the phosphorylation
same,"effect on hBD-2 production, in words",hBD-2 production; 0.39 to 12.5 μM,no effect
same,degradation of p-IκB,IκB,did not alter the degradation of p-IκB
same,phosphorylation of PKC induced by P. acnes,PKC,prevented the phosphorylation
same,phosphorylation of Akt induced by P. acnes,Akt,prevented the phosphorylation
"N#CC(c1ccc(Cl)cc1)c1c(Cl)cc(-n2ncc(=O)[nH]c2=O)cc1Cl (stereo not drawn) [diclazuril, Diclazuril]",P. acnes-induced ICAM-1 expression,ICAM-1,no effect
same,phosphorylation of ERKs induced by P. acnes,ERK,prevented the phosphorylation of ERKs
same,phosphorylation of ERK induced by P. acnes,ERK,prevented the phosphorylation
same,decrease of hBD-2 production,hBD-2 production; at 12.5 μM,68%
same,degradation of IκB,"IκB; 10 μM, P. acnes 15-180 min",did not prevented the degradation of IκB
same,degradation of p-IκB,IκB,did not alter the degradation of p-IκB
same,phosphorylation of PKC induced by P. acnes,PKC,prevented the phosphorylation
same,phosphorylation of Akt induced by P. acnes,Akt,prevented the phosphorylation
